From US20230045421A1 (priority 2018, published 2023)

Tested on: HBV rcDNA
Assay: HepDE19 assay with bDNA quantitation of HBV rcDNA
Type: cell-based, hepatitis B virus
Settings: HepDE19 assay, inhibition of formation of rcDNA; read-out: DE-19bDNA EC50
Procedure, shortened: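 HepDE19 cells (HepG2-derived, Tet-regulated HBV replication) were deprived of tetracycline and then exposed to compounds for 7 days at 37 °C in 0.5% DMSO, 8-point titration from 25 μM. rcDNA was quantified by bDNA and EC50/EC90 came from 4-parameter fits. CC50 was measured by CellTiter-Glo ATP content on replicate plates after 4 days.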

In order of rising EC50:
1. COCCCN(C(=O)Nc1ccc(F)c(Cl)c1)C(C)c1c[nH]c(=O)c2ccccc12 (stereo not shown) [Compound 80]  0.03 µM
2. COCCCN(C(=O)Nc1ccc(F)c(Cl)c1)C(C)c1c[nH]c(=O)c2ccccc12 (stereo not shown) [Compound 79]  2.1 µM

Same assay, conditions: Hepatitis B virus, HepDE19, HepDE19 assay, inhibition of formation of rcDNA; read-out: DE-19bDNA EC50

In order of falling EC50:
1. COc1ncc(CN(CCO)C(=O)Nc2ccc(F)c(Cl)c2)c2ccccc12 [Compound 21, 3-(3-Chloro-4-fluorophenyl)-1-(2-hydroxyethyl)-1-((1-methoxyisoquinolin-4-yl)methyl)urea]  18 µM
2. COc1ncc(CNC(=O)Nc2ccc(F)c(C)c2)c2ccccc12 [Compound 7, 1-(4-Fluoro-3-methylphenyl)-3-((1-methoxyisoquinolin-4-yl)methyl)urea]  12 µM
3. COc1ncc(CNC(=O)Nc2ccc(F)c(Cl)c2)c2ccccc12 [Compound 6, 1-(3-Chloro-4-fluorophenyl)-3-((1-methoxyisoquinolin-4-yl)methyl)urea]  9 µM
4. O=C(NCc1c[nH]c(=O)c2ccccc12)Nc1ccc(F)c(Cl)c1 [Compound 8, 1-(3-Chloro-4-fluorophenyl)-3-((1-oxo-1,2-dihydroisoquinolin-4-yl)methyl)urea]  6.8 µM
5. Cc1cc(NC(=O)NCc2c[nH]c(=O)c3ccccc23)ccc1F [Compound 4, 1-(4-Fluoro-3-methylphenyl)-3-((1-oxo-1,2-dihydroisoquinolin-4-yl)methyl)urea]  4.8 µM
6. C[C@@H](c1c[nH]c(=O)c2ccccc12)N(C)C(=O)Nc1ccc(F)c(Cl)c1 [Compound 13, 3-(3-Chloro-4-fluorophenyl)-1-methyl-1-(1-(1-oxo-1,2-dihydroisoquinolin-4-yl)ethyl)urea]  4.7 µM
7. CCN(Cc1cnc(OCCO)c2ccccc12)C(=O)Nc1ccc(F)c(Cl)c1 [Compound 29, 3-(3-Chloro-4-fluorophenyl)-1-ethyl-1-((1-(2-hydroxyethoxy)isoquinolin-4-yl)methyl)urea]  4.2 µM
8. COCCN(Cc1cnc(OC)c2ccccc12)C(=O)Nc1ccc(F)c(Cl)c1 [Compound 41, 3-(3-Chloro-4-fluorophenyl)-1-(2-methoxyethyl)-1-((1-methoxyisoquinolin-4-yl)methyl)urea]  3.8 µM
9. COc1ncc(CN(C(=O)Nc2ccc(F)c(Cl)c2)C2CC2)c2ccccc12 [Compound 34, 3-(3-Chloro-4-fluorophenyl)-1-cyclopropyl-1-((1-methoxyisoquinolin-4-yl)methyl)urea]  3.7 µM
10. COc1ncc(CN(C(=O)Nc2ccc(F)c(Cl)c2)C(C)C)c2ccccc12 [Compound 19, 3-(3-Chloro-4-fluorophenyl)-1-isopropyl-1-((1-methoxyisoquinolin-4-yl)methyl)urea]  2.1 µM
11. COc1ncc(CN(Cc2ccccc2)C(=O)Nc2ccc(F)c(Cl)c2)c2ccccc12 [Compound 48, 1-Benzyl-3-(3-chloro-4-fluorophenyl)-1-((1-methoxyisoquinolin-4-yl)methyl)urea]  2.1 µM
12. COc1ncc(CN(C)C(=O)Nc2ccc(F)c(Cl)c2)c2ccccc12 [Compound 2, 3-(3-Chloro-4-fluorophenyl)-1-((1-methoxyisoquinolin-4-yl)methyl)-1-methylurea]  2 µM
13. COCCCN(Cc1cnc(OC)c2ccccc12)C(=O)Nc1ccc(F)c(Cl)c1 [Compound 47, 3-(3-Chloro-4-fluorophenyl)-1-((1-methoxyisoquinolin-4-yl)methyl)-1-(3-methoxypropyl)urea]  2 µM
14. CCN(Cc1cncc2ccccc12)C(=O)Nc1ccc(F)c(Cl)c1 [Compound 16, 3-(3-Chloro-4-fluorophenyl)-1-ethyl-1-(isoquinolin-4-ylmethyl)urea]  1.7 µM
15. CCOc1ncc(CN(CC)C(=O)Nc2ccc(F)c(Cl)c2)c2ccccc12 [Compound 17, 3-(3-chloro-4-fluorophenyl)-1-((1-ethoxyisoquinolin-4-yl)methyl)-1-ethylurea]  1.6 µM
16. CCN(Cc1cnc(OC)c2ccccc12)C(=O)Nc1ccc(F)c(Cl)c1 [Compound 15, 3-(3-Chloro-4-fluorophenyl)-1-ethyl-1-((1-methoxyisoquinolin-4-yl)methyl)urea]  1.2 µM
17. COc1ncc(CN(C)C(=O)Nc2ccc(F)c(C)c2)c2ccccc12 [Compound 3, 3-(4-Fluoro-3-methylphenyl)-1-((1-methoxyisoquinolin-4-yl)methyl)-1-methylurea]  1.1 µM
18. CN(Cc1cnc(OCc2ccccn2)c2ccccc12)C(=O)Nc1ccc(F)c(Cl)c1 [Compound 88, 3-(3-Chloro-4-fluorophenyl)-1-methyl-1-((1-(pyridin-2-ylmethoxy)isoquinolin-4-yl)methyl)urea]  1.1 µM
19. O=C(Nc1ccc(F)c(Cl)c1)N(CCO)Cc1c[nH]c(=O)c2ccccc12 [Compound 27, 3-(3-Chloro-4-fluorophenyl)-1-(2-hydroxyethyl)-1-((1-oxo-1,2-dihydroisoquinolin-4-yl)methyl)urea]  1 µM
20. COc1ncc(CN(CC2CC2)C(=O)Nc2ccc(F)c(Cl)c2)c2ccccc12 [Compound 31, 3-(3-Chloro-4-fluorophenyl)-1-(cyclopropylmethyl)-1-((1-methoxyisoquinolin-4-yl)methyl)urea]  0.87 µM
21. O=C(Nc1ccc(F)c(Cl)c1)N(Cc1c[nH]c(=O)c2ccccc12)C1CC1 [Compound 42, 3-(3-Chloro-4-fluorophenyl)-1-cyclopropyl-1-((1-oxo-1,2-dihydroisoquinolin-4-yl)methyl)urea]  0.81 µM
22. CCCCN(Cc1cnc(OC)c2ccccc12)C(=O)Nc1ccc(F)c(Cl)c1 [Compound 33, 1-Butyl-3-(3-chloro-4-fluorophenyl)-1-((1-methoxyisoquinolin-4-yl)methyl)urea]  0.62 µM
23. Cc1cc(NC(=O)N(C)Cc2c[nH]c(=O)c3ccccc23)ccc1F [Compound 5, 3-(4-Fluoro-3-methylphenyl)-1-methyl-1-((1-oxo-1,2-dihydroisoquinolin-4-yl)methyl)urea]  0.49 µM
24. CN(Cc1c[nH]c(=O)c2ccccc12)C(=O)Nc1ccc(F)c(Cl)c1 [Compound 1, 3-(3-Chloro-4-fluorophenyl)-1-methyl-1-((1-oxo-1,2-dihydroisoquinolin-4-yl)methyl)urea]  0.47 µM
25. CN(Cc1cnc(OCc2ncn(C)n2)c2ccccc12)C(=O)Nc1ccc(F)c(Cl)c1 [Compound 87, 3-(3-Chloro-4-fluorophenyl)-1-methyl-1-((1-((1-methyl-1H-1,2,4-triazol-3-yl)methoxy)isoquinolin-4-yl)methyl)urea]  0.47 µM
26. CCCN(Cc1cnc(OC)c2ccccc12)C(=O)Nc1ccc(F)c(Cl)c1 [Compound 20, 3-(3-Chloro-4-fluorophenyl)-1-((1-methoxyisoquinolin-4-yl)methyl)-1-propylurea]  0.44 µM
27. CC(C)N(Cc1c[nH]c(=O)c2ccccc12)C(=O)Nc1ccc(F)c(Cl)c1 [Compound 26, 3-(3-Chloro-4-fluorophenyl)-1-isopropyl-1-((1-oxo-1,2-dihydroisoquinolin-4-yl)methyl)urea]  0.43 µM
28. C[C@H](c1c[nH]c(=O)c2ccccc12)N(C)C(=O)Nc1ccc(F)c(C(F)(F)F)c1 [Compound 89, (R)-3-(4-Fluoro-3-(trifluoromethyl)phenyl)-1-methyl-1-(1-(1-oxo-1,2-dihydroisoquinolin-4-yl)ethyl)urea]  0.32 µM
29. CCN(Cc1cn(C)c(=O)c2ccccc12)C(=O)Nc1ccc(F)c(Cl)c1 [Compound 18, 3-(3-Chloro-4-fluorophenyl)-1-ethyl-1-((2-methyl-1-oxo-1,2-dihydroisoquinolin-4-yl)methyl)urea]  0.26 µM
30. CCN(Cc1c[nH]c(=O)c2ccccc12)C(=O)Nc1ccc(F)c(Cl)c1 [Compound 9, 3-(3-Chloro-4-fluorophenyl)-1-ethyl-1-((1-oxo-1,2-dihydroisoquinolin-4-yl)methyl)urea]  0.16 µM
31. CCCCN(Cc1c[nH]c(=O)c2ccccc12)C(=O)Nc1ccc(F)c(Cl)c1 [Compound 52, 1-Butyl-3-(3-chloro-4-fluorophenyl)-1-((1-oxo-1,2-dihydroisoquinolin-4-yl)methyl)urea]  0.08 µM
32. CCCN(Cc1c[nH]c(=O)c2ccccc12)C(=O)Nc1ccc(F)c(Cl)c1 [Compound 28, 3-(3-Chloro-4-fluorophenyl)-1-((1-oxo-1,2-dihydroisoquinolin-4-yl)methyl)-1-propylurea]  0.06 µM
33. C[C@H](c1c[nH]c(=O)c2ccccc12)N(C)C(=O)Nc1ccc(F)c(Cl)c1 [Compound 14, (R)-3-(3-chloro-4-fluorophenyl)-1-methyl-1-(1-(1-oxo-1,2-dihydroisoquinolin-4-yl)ethyl)urea]  0.04 µM
34. Cc1cc(NC(=O)N(C)[C@H](C)c2c[nH]c(=O)c3ccccc23)ccc1F [Compound 32, (R)-3-(4-Fluoro-3-methylphenyl)-1-methyl-1-(1-(1-oxo-1,2-dihydroisoquinolin-4-yl)ethyl)urea]  0.03 µM
35. CCCN(C(=O)Nc1ccc(F)c(Cl)c1)[C@H](C)c1c[nH]c(=O)c2ccccc12 [Compound 35, (R)-3-(3-Chloro-4-fluorophenyl)-1-(1-(1-oxo-1,2-dihydroisoquinolin-4-yl)ethyl)-1-propylurea]  0.01 µM
36. CCCN(C(=O)Nc1ccc(F)c(C)c1)[C@H](C)c1c[nH]c(=O)c2ccccc12 [Compound 43, (R)-3-(4-Fluoro-3-methylphenyl)-1-(1-(1-oxo-1,2-dihydroisoquinolin-4-yl)ethyl)-1-propylurea]  0.01 µM

Same assay, conditions: Hepatitis B virus, HepDE19, read-out: DE-19bDNA EC50 (μM), HepDE19 assay, inhibition of formation of rcDNA

In order of rising EC50:
1. O=C(Nc1ccc(F)c(Cl)c1)N(Cc1c[nH]c(=O)c2ccccc12)CC1CC1 [Compound 53, 3-(3-Chloro-4-fluorophenyl)-1-(cyclopropylmethyl)-1-((1-oxo-1,2-dihydroisoquinolin-4-yl)methyl)urea]  0.16 µM
2. COCCN(Cc1c[nH]c(=O)c2ccccc12)C(=O)Nc1ccc(F)c(Cl)c1 [Compound 50, 3-(3-Chloro-4-fluorophenyl)-1-(2-methoxyethyl)-1-((1-oxo-1,2-dihydroisoquinolin-4-yl)methyl)urea]  0.47 µM
